Experimental data published in publication PMC2848619, “The Combinatorial PP1-Binding Consensus Motif (R/K)x (0,1)V/IxFxx(R/K)x(R/K) Is a New Apoptotic Signature” (PLoS ONE, 2010).
Blank lines part the entries; values can stand above or below the molecule they belong to. Where a SMILES comes first, the peptide text is derived from it. Where no end group is shown, it is not given here. The star is where a group is joined. Biotin = O=C1N[C@H]2[C@H](CS[C@H]2CCCCC(=O)*)N1

Experiments:
PP1c [1] = experiment: PP1c binding of DPT-APAF peptides (abstract only); conditions: stated in abstract only
[2] = Apoptotic effect of DPT-APAF peptides (abstract only); type: cell-based; conditions: stated in abstract only
HeLa cells = experiment: Quantification of peptide internalization: intracellular delivery of streptavidin-peroxidase (OPD); type: cell-based, human; conditions: 6 hrs at 37°C, compared with TAT peptide
Description: Before incubation, the peptides were preincubated for 1 h with streptavidin HRP conjugate in a 4/1 ratio. Cells at 80% confluence were incubated with different concentrations of peptide in 24-well plates. After 6 h, cells were washed twice in PBS, trypsinized (Trypsin EDTA, Invitrogen) and harvested in 1 ml of PBS and counted. Cells were lysed in 300 µl of 0.1 M Tris pH 7.4, and 0.5% Nonidet P-40 buffer for 10 min on ice. A total of 50 µl of cell lysate was mixed with 50 µl of OPD buffer (51.4 mM Na2HPO4 and 24.3 mM citric acid) then mixed with 100 µl of OPD solution (one OPD tablet from Sigma (St. Louis MO) in 100 ml of OPD buffer to which 40 µl of 30% hydrogen peroxide was added just before use). After 10 to 20 min, the reaction was stopped by adding 100 µl of 1 M HCl, and optical density was read at 490 nm.

PP1c [3] = experiment: Pull down assay of biotinylated peptides with PP1c from HeLa cell extracts; type: binding, human; conditions: peptide 100 µM on streptavidin magnetic beads, HeLa cell lysate, 2 h 4°C, western blot with PP1 antibodies
Description: Biotinylated peptides were pre-incubated for 2 h at 100 µM (final concentration with lysate) and room temperature with 30 µl of streptavidin-coated immunomagnetic beads (Calbiochem, San Diego CA). During this time, 1×10^6 HeLa cells at 90% of confluence per test peptide were washed with PBS, trypsinized, harvested with PBS, washed with 1 ml of PBS, and centrifuged at 600 g and 4°C for 10 min. Cell pellets were lysed 10 min on ice with 400 µl of lysis buffer (50 mM Tris pH 7.4, 200 mM NaCl, 10 mM EDTA, 20% Glycerol, 1% Nonidet P-40, 1 mM phenylmethylsulfonyl fluoride (PMSF), 10 mM NaF, 1 mM orthovanadate, and “complete mini EDTA free” protease inhibitor cocktail from Roche). Lysates were clarified at 13,000 g for 10 min at 4°C and after rotation with supernatant at 4°C for 2 h, biotinylated peptides were pulled down with streptavidine magnetic beads and washed twice with 750 µl of lysis buffer. Bound proteins and clarified lysates were analyzed by western blotting using PP1 antibodies.

PP1c binding (PP1c [1]): PP1-interacting
Molecule: DPT-APAF1: bi-partite cell penetrating peptide containing APAF-1_122–131 linked to DPT-sh1 peptide shuttle (RPVVFVTRKK; also: linked to DPT-sh1 shuttle peptide, junction not given here; UniProt O14727 122-131, looked up, fragment)
Apoptotic effect [2]: death molecule

Ability to internalize Streptavidin-HRP conjugated molecules (in words) (HeLa cells): not DPT-AIF2
Molecule: CC[C@H](C)[C@H](NC(=O)[C@@H](NC(=O)CNC(=O)[C@H](CCCCN)NC(=O)CCCC[C@@H]1SC[C@@H]2NC(=O)N[C@@H]21)C(C)C)C(=O)N[C@@H](C)C(=O)N[C@@H](Cc1ccc(O)cc1)C(=O)N[C@@H](CC(C)C)C(=O)N[C@@H](CCCNC(=N)N)C(=O)N[C@@H](CC(=O)O)C(=O)N[C@@H](CCCCN)C(=O)O [DPT-AIF2] (Biotin-KGVIAYLRDK-OH)

Molecule: DPT-AIF4: mutated peptide of 8 accessible residues of AIF564–571 containing the F566A mutation (Biotin-VIAYLRDK)
Co-precipitation of PP1c with biotinylated peptide (PP1c [3]): unable to co-precipitate PP1c

Molecule: CC[C@H](C)[C@H](NC(=O)[C@@H](NC(=O)CNC(=O)[C@H](CCCCN)NC(=O)CCCC[C@@H]1SC[C@@H]2NC(=O)N[C@@H]21)C(C)C)C(=O)N[C@@H](Cc1ccccc1)C(=O)N[C@@H](Cc1ccc(O)cc1)C(=O)N[C@@H](CC(C)C)C(=O)N[C@@H](CCCNC(=N)N)C(=O)N[C@@H](CC(=O)O)C(=O)N[C@@H](CCCCN)C(=O)O [DPT-AIF1] (Biotin-KGVIFYLRDK-OH)
Ability to internalize Streptavidin-HRP conjugated molecules (in words) (HeLa cells): able to internalize Streptavidin-HRP conjugated molecules even more efficiently than the well characterized positive control TAT peptide
